Results taken from patent US11873298B2, “Compounds and uses thereof” (JANSSEN PHARMACEUTICA NV, priority 2017, dated 2024).

What was measured:
SCD1 = target: T1, SCD1 (Homo sapiens, UniProt O00767); assay: Growth inhibition of humanized yeast strain expressing SCD1 as sole desaturase; format: cell-based; settings: humanized yeast strain expressing SCD1
T1 construct: host or cells: S. cerevisiae ole1Δ strain (W303 pdr1Δ pdr3Δ background), plasmid pRS316 with TDH3 promoter and CYC1 terminator
T1 sequence (O00767 1-359): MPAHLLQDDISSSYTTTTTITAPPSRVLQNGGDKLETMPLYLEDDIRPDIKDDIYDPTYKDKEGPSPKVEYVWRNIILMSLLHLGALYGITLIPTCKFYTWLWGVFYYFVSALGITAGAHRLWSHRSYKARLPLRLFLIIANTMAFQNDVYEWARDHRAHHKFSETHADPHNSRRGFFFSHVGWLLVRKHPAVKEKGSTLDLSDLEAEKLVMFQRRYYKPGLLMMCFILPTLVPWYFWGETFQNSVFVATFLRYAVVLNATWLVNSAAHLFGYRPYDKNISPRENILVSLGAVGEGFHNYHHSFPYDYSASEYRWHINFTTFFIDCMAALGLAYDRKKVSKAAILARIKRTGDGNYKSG
Procedure, shortened: (§1)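 OD600 growth read-out. ole1Δ yeast, pdr1Δ pdr3Δ, with Ole1/SCD1/SCD5 on a plasmid; SX-Ura media throughout; 2× cell density 0.02 in CSM-Galactose; DMSO compound dilutions; humidified 30° C.; Ole1 stopped at 24 h, SCD1/SCD5 at 40 h.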

[1] = test system: yeast strains expressing the human α-synuclein; assay: Yeast α-synuclein toxicity rescue assay (OD600 growth); settings: 40 h; for EC50: read-out: α-Syn EC50; for Emax: read-out: α-Syn Emax
Text: (§2) The induced expression of α-synuclein and ApoE4 confers cytotoxicity, thus enabling the identification of compounds that can restore cell viability. This instantaneous/synchronous induction of α-synuclein and ApoE4 can be achieved due to the following expression control. In glucose-containing media, gene expression from the GAL1 promoter is ‘off’ and actively repressed by additional epigenetic factors. In raffinose, expression is ‘off’, but the promoter not actively repressed. Upon transition to galactose-containing media, the promoter is instantaneously turned ‘on’ to achieve robust and synchronous induction of α-synuclein or ApoE4 expression. This highly regulated induction provides a robust window for the determination of both efficacy (amplitude of protective effect) and potency (concentration of protective effect) of cytoprotective compounds.
(§3) Re-suspended compound stocks were subsequently arrayed into 384 well compound plates using automated pipetting. All other wells not receiving stock compound were filled with 10 μL of 100% DMSO using an automated plate filler (Multidrop Combi). An 11 point, 2-fold serial dilution was then performed using the robotic platform. Compound assay plates were covered with foil and stored at −20° C. until use.
(§4) Each strain was handled according to standard protocols and cultured in media composed of CSM (complete synthetic media), YNB (yeast nitrogenous base), and a 2% (w/v) carbon source (either glucose, raffinose, or galactose).
(§5) In a standard yeast assay, a single-use aliquot of cells was thawed on ice and diluted into CSM/glucose (5 mL). Cultures were grown for 8 hours at 30° C. This pre-growth enables the yeast to exit the thaw and begin to grow without expressing aSyn or ApoE4. After 8 hours, cell density (OD600) was determined and cultures diluted to an OD600 of 0.01 in CSM/raffinose for an overnight culture phase at 30° C. During this period, the active glucose repression of the GAL1 promoter was relieved; however, expression of the α-Syn/ApoE4 genes were not yet induced. After ˜16 hours of growth, cultures attain an OD600 of 0.4-0.8 and were ready to apply to assay plates containing compound.
(§6) Compound profiling assays were executed in clear-bottom 384 well plates. First, compound plates were thawed at room temperature for 45′, centrifuged at 1,000×g for 1 minute, and the foil removed. Clear 384 well assay plates were then filled with 15 μL of CSM/galactose. […] The pin tool was washed iteratively with both 50% DMSO and 100% ethanol between each assay plate. After delivering compound to each assay plate, the overnight CSM/raffinose aSyn or ApoE4 cultures were added at a 2X cell density (0.04 for aSyn and 0.08 for ApoE4) in CSM/galactose to achieve a final assay OD600 of 0.02 and 0.04 for aSyn and ApoE, respectively. The cultures (15 μL per well) were then dispensed to the compound -containing 384 well assay plates using an automated plate filler. Plates were incubated in a humidified 30° C. incubator for 40 or 24 hours for aSyn and ApoE4, respectively. The ODsoo of each assay plate was then read with a microplate reader (e.g., Perkin Elmer Envision).
(§7) The efficacy and potency of compounds were calculated according to the following. Raw data (OD600 values) were first background corrected to account for OD600 contributed by the plate and media itself. The efficacy (percent above DMSO, herein referred to as “Emax”) was calculated according to the equation: (Experimental well−DMSO control well)/(DMSO control well)*100. […] Normalized dose-response data was fit with a logistic regression curve using Spotfire (TIBCO), or similar curve-fitting software package. EC50 values were then reported along with EMax to provide both efficacy and potency measures for each analog and enable further compound design.

Ole1 = target: T2, Ole1 (Saccharomyces cerevisiae, UniProt P21147); assay: Growth inhibition of yeast strain expressing Ole1 as sole desaturase; format: cell-based; settings: yeast strain expressing Ole1 as sole desaturase
T2 construct: expressed in transfected cells; host or cells: S. cerevisiae ole1Δ strain (W303 pdr1Δ pdr3Δ background), plasmid pRS316 with TDH3 promoter and CYC1 terminator
T2 sequence (P21147 1-510): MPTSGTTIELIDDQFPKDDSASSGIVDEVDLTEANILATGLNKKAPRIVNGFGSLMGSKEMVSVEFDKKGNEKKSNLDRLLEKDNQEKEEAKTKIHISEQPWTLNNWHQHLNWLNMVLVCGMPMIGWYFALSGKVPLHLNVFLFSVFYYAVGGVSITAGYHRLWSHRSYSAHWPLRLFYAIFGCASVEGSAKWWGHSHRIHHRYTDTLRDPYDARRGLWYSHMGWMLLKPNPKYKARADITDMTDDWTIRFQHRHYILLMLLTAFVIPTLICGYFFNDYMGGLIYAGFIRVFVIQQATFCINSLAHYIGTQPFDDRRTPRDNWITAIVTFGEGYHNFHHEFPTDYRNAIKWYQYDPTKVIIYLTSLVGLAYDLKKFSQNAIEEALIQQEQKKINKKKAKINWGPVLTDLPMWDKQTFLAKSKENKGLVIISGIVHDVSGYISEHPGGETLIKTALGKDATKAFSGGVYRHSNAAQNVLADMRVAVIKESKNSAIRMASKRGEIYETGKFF
Procedure, shortened: as §1

SCD5 = target: T3, SCD5 (Homo sapiens, UniProt Q86SK9); assay: Growth inhibition of humanized yeast strain expressing SCD5 as sole desaturase; format: cell-based; settings: humanized yeast strain expressing SCD5
T3 construct: host or cells: S. cerevisiae ole1Δ strain (W303 pdr1Δ pdr3Δ background), plasmid pRS316 with TDH3 promoter and CYC1 terminator
T3 sequence (Q86SK9 1-330): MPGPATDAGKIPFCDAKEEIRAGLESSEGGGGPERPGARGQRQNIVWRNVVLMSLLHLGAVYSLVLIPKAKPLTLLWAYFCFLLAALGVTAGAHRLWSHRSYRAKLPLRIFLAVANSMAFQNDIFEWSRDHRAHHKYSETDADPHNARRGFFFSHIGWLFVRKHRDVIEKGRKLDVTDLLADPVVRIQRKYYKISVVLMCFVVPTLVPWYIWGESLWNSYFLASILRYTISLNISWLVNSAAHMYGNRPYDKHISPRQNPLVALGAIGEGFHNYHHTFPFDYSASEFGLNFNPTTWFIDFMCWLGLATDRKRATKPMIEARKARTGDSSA
Procedure, shortened: as §1

[2] = test system: yeast strains expressing the human ApoE4; assay: Yeast ApoE4 toxicity rescue assay (OD600 growth); settings: 24 h; for EC50: read-out: ApoE4 EC50; for Emax: read-out: ApoE4 Emax
Text: as §2, §3, §4, §5, §6, §7

Structure (SMILES)	IC50 (SCD1)	EC50 [1]	Emax [1]	IC50 (Ole1)	IC50 (SCD5)	EC50 [2]	Emax [2]	SCD1 % Max Inhibition (SCD1)	OLE1 % Max Inhibition (Ole1)	SCD5 % Max Inhibition (SCD5)
CCOc1ccc(-c2noc(N3CCC(C(=O)N4CCCC(c5ccccc5)C4)CC3)n2)cc1OC (stereo not drawn) [compound 100]	32.8 µM	1.19 µM	385%	> 45 µM	> 45 µM	2.11 µM	651%			
COc1ccc(-c2noc(C3CCN(C(=O)CNC(=O)c4ccc(C)c(C)c4)CC3)n2)cc1OC [compound 15]	> 45 µM	1.71 µM	628%	> 45 µM	> 45 µM	3.63 µM	866%			
Cc1cccc(-c2noc(C3CCN(C(=O)C4CC(=O)N(c5ccc(C)c(C)c5)C4)CC3)n2)c1 (stereo not drawn) [compound 3]	> 45 µM	17.8 µM	307%	38.5 µM	> 45 µM		200%			
O=C(NCC(=O)N1CCC(c2nc(-c3cccc(F)c3)no2)CC1)c1ccccc1 [Compound 42]	> 45 µM	12.5 µM	255%	> 45 µM	> 45 µM		399%	90.77%	95.43%	47.40%
COc1ccc(-c2noc(C3CCN(C(=O)C4CC(=O)N(c5ccccc5)C4)CC3)n2)cc1OC (stereo not drawn) [compound 18]		0.266 µM	452%	> 45 µM	> 45 µM	1.51 µM	826%			
Cc1cccc(-c2nc(C3CCN(C(=O)[C@H]4CC(=O)N(c5ccc(C)c(C)c5)C4)CC3)no2)c1 (single isomer, unassigned) [compound 73]	33.7 µM	15.8 µM	151%	> 45 µM	> 45 µM		303%			
COc1ccc(-c2noc(C3CCN(C(=O)[C@@H]4CC(=O)N(c5ccccc5)C4)CC3)n2)cc1OC [compound 66]		11.1 µM	350%	> 45 µM		21.2 µM	790%			
CCOc1ccc(-c2noc(C3CCN(C(=O)NC4CC4c4ccccc4)CC3)n2)cc1OC (stereo not drawn) [compound 80]	> 45 µM	3.32 µM	188%	> 45 µM	> 45 µM	6.01 µM	262%			
COc1ccc(-c2noc(C3CCN(C(=O)[C@H]4CC(=O)N(c5ccccc5)C4)CC3)n2)cc1OC [compound 65]		0.036 µM	643%	> 45 µM		0.987 µM	779%			
CC1(C)CC(=O)c2c(O)cc(OCC(=O)N3CCC(c4nc(-c5ccccc5)no4)CC3)cc2O1 [compound 76]		9.92 µM	76%			14.8 µM	162%			
COc1ccc(-c2noc(C3CCN(C(=O)CN(C)C(=O)c4ccccc4)CC3)n2)cc1OC [compound 22]		8.42 µM	334%	40.5 µM	30 µM		372%			
COc1ccc(-c2noc(C3CCN(C(=O)Cc4cncc(C)n4)CC3)n2)cc1OC [Compound 45]		26 µM	121%			29.3 µM	19%			
O=C(NC1CC1c1ccccc1)N1CCC(c2nc(-c3ccc4ccccc4n3)no2)CC1 (stereo not drawn) [compound 82]						16.8 µM	40%			
COc1ccc(-c2noc(C3CCN(C(=O)COc4cc(O)c5c(c4)OC(C)(C)CC5=O)CC3)n2)cc1OC [compound 77]			345%				436%			
COc1ccc(-c2noc(C3CCN(C(=O)[C@@H]4CC(=O)N(c5ccc(C)c(C)c5)C4)CC3)n2)cc1OC [compound 68]		1.86 µM	652%	> 45 µM		3.12 µM	775%			
CCOc1ccc(-c2noc(C3CCN(C(=O)C4CC(=O)N(c5ccccc5)C4)CC3)n2)cc1OC (stereo not drawn) [compound 84]		0.06 µM	463%			0.956 µM	866%			
